Data reported in PMC6222718, “Ethylenediamine Derived Carboxamides of Betulinic and Ursolic Acid as Potential Cytotoxic Agents” (Molecules : A Journal of Synthetic Chemistry and Natural …, 2018).

How the values were obtained:
518A2 (melanoma) = assay: SRB cytotoxicity assay, 518A2; format: cell-based, human; details: for EC50: Homo sapiens, SRB assay, 96 h of treatment, 518A2; for Selectivity index (SI) 518A2: SI = EC50 (NIH 3T3)/EC50 (518A2)
Protocol: (§1) The cytotoxicity of ursolic and betulinic carboxamides 3–30 was determined in sulforhodamine B (SRB) assays.
(§2) The cell lines used were human cancer cell lines: 518A2 (melanoma), A2780 (ovarian carcinoma), HT29 (colon adenocarcinoma), MCF-7 (breast adenocarcinoma), 8505C (thyroid carcinoma) and non-malignant mouse fibroblasts NIH 3T3. Cultures were maintained as monolayers in RPMI 1640 medium with L-glutamine (Capricorn Scientific GmbH, Ebsdorfergrund, Germany) supplemented with 10% heat inactivated fetal bovineserum (Sigma-Aldrich Chemie GmbH, Steinheim, Germany) and penicillin/streptomycin (Capricorn Scientific GmbH, Ebsdorfergrund, Germany) at 37 °C in a humidified atmosphere with 5% CO2.
(§3) The cytotoxicity of the compounds was evaluated using the sulforhodamine-B (Kiton-Red S, ABCR) micro culture colorimetric assay. Cells were seeded into 96-well plates on day 0 at appropriate cell densities to prevent confluence of the cells during the period of experiment. After 24 h, the cells were treated with 6 different concentrations (1, 3, 7, 12, 20 and 30 µM) minimum. The final concentration of DMSO/DMF never exceeded 0.5%, which was non-toxic to the cells. After a 96 h treatment, the supernatant medium from the 96-well plates was discarded, the cells were fixed with 10% trichloroacetic acid (TCA) and allowed to rest at 4 °C. After 24 h fixation, the cells were washed in a strip washer and dyed with SRB solution (100 µL, 0.4% in 1% acetic acid) for about 20 min. After dying, the plates were washed four times with 1% acetic acid to remove the excess of the dye and allowed to air-dry overnight. Tris base solution (200 µL, 10 mM) was added to each well and absorbance was measured at λ = 570 nm using a 96-well plate reader (Tecan Spectra, Crailsheim, Germany). The EC50 values were averaged from three independent experiments performed each in triplicate calculated from semi logarithmic dose response curves applying a non-linear 4P Hills-slope equation (GraphPad Prism5; variables top and bottom were set to 100 and 0, respectively).

[1] = system: HT29 (colon adenocarcinoma); assay: SRB cytotoxicity assay, HT29; format: cell-based, human; details: for EC50: Homo sapiens, HT-29, SRB assay, 96 h of treatment, HT29; for Selectivity index (SI) HT29: SI = EC50 (NIH 3T3)/EC50 (HT29)
Protocol: as §1, §2, §3

[2] = system: non-malignant mouse fibroblasts NIH 3T3; assay: SRB cytotoxicity assay, NIH 3T3; format: cell-based; details: NIH3T3, 96 h of treatment
Protocol: as §1, §2, §3

[3] = system: A2780 (ovarian carcinoma); assay: SRB cytotoxicity assay, A2780; format: cell-based, human; details: for EC50: Homo sapiens, SRB assay, 96 h of treatment, A2780; for Selectivity index (SI) A2780: SI = EC50 (NIH 3T3)/EC50 (A2780)
Protocol: as §1, §2, §3

[4] = system: 8505C (thyroid carcinoma); assay: SRB cytotoxicity assay, 8505C; format: cell-based, human; details: for EC50: Homo sapiens, SRB assay, 96 h of treatment, 8505C; for Selectivity index (SI) 8505C: SI = EC50 (NIH 3T3)/EC50 (8505C)
Protocol: as §1, §2, §3

[5] = system: MCF-7 (breast adenocarcinoma); assay: SRB cytotoxicity assay, MCF-7; format: cell-based, human; details: for EC50: Homo sapiens, MCF7, SRB assay, 96 h of treatment, MCF-7; for Selectivity index (SI) MCF-7: SI = EC50 (NIH 3T3)/EC50 (MCF-7)
Protocol: as §1, §2, §3

SMILES	melting point	EC50 (518A2 (melanoma))	Selectivity index (SI) 518A2 (518A2 (melanoma))	EC50 [1]	Selectivity index (SI) HT29 [1]	EC50 [2]	EC50 [3]	Selectivity index (SI) A2780 [3]	EC50 [4]	Selectivity index (SI) 8505C [4]	EC50 [5]	Selectivity index (SI) MCF-7 [5]
C=C(C)C1CC[C@]2(C(=O)NCCCCN)CC[C@]3(C)C(CCC4[C@@]5(C)CC[C@H](OC(C)=O)C(C)(C)C5CC[C@]43C)C12 (stereo partly drawn) [Compound 22, (3β)-N-(4-Aminobutyl)-3-acetyloxy-lup-20(29)-en-28-amide]	133 to 135 °C	1000 ± 30 nM	0.60	600 ± 50 nM	1.00	600 ± 40 nM	1100 ± 30 nM	0.55	1400 ± 50 nM	0.43	800 ± 40 nM	0.75
C[C@@H]1CC[C@]2(C(=O)NCCN)CC[C@]3(C)C(=CCC4[C@@]5(C)CC[C@H](O)C(C)(C)C5CC[C@]43C)C2[C@H]1C (stereo partly drawn) [Compound 10, (3β)-N-(2-Aminoethyl)-3-hydroxy-urs-12-en-28-amide]	139 to 142 °C	3700 ± 500 nM	1.05	2000 ± 100 nM	1.95	3900 ± 100 nM	3300 ± 100 nM	1.18	3700 ± 400 nM	1.05	3200 ± 300 nM	1.22
C=C(C)C1CC[C@]2(C(=O)NCCN3CCCCC3)CC[C@]3(C)C(CCC4[C@@]5(C)CC[C@H](OC(C)=O)C(C)(C)C5CC[C@]43C)C12 (stereo partly drawn) [Compound 20, (3β)-N-(2-Piperidin-1-ylethyl)-3-acetyloxy-lup-20(29)-en-28-amide]	124 to 127 °C	3100 ± 300 nM	0.39	800 ± 100 nM	1.50	1200 ± 200 nM	1600 ± 200 nM	0.75	3000 ± 360 nM	0.40	1500 ± 500 nM	0.80
CC(=O)O[C@H]1CC[C@@]2(C)C(CC[C@]3(C)C2CC=C2C4[C@@H](C)[C@H](C)CC[C@]4(C(=O)NCCN(C)C)CC[C@]23C)C1(C)C (stereo partly drawn) [Compound 4, (3β)-N-[2-(Dimethylamino)ethyl]-3-acetyloxy-urs-12-en-28-amide]	121 to 124 °C	5300 ± 400 nM	0.70	3400 ± 300 nM	1.09	3700 ± 200 nM	3600 ± 400 nM	1.03	8300 ± 700 nM	0.45	3300 ± 700 nM	1.12
C[C@@H]1CC[C@]2(C(=O)NCCN3CCNCC3)CC[C@]3(C)C(=CCC4[C@@]5(C)CC[C@H](O)C(C)(C)C5CC[C@]43C)C2[C@H]1C (stereo partly drawn) [Compound 14, (3β)-N-(2-Piperazin-1-ylethyl)-3-hydroxy-urs-12-en-28-amide]	214 to 217 °C	7000 ± 400 nM	0.94	2800 ± 400 nM	2.36	6600 ± 600 nM	4900 ± 400 nM	1.35	7800 ± 500 nM	0.85	4400 ± 100 nM	1.50
C=C(C)C1CC[C@]2(C(=O)NCCN3CCNCC3)CC[C@]3(C)C(CCC4[C@@]5(C)CC[C@H](O)C(C)(C)C5CC[C@]43C)C12 (stereo partly drawn) [Compound 28, (3β)-N-(2-Piperazin-1-ylethyl)-3-hydroxy-lup-20(29)-en-28-amide]	146 to 148 °C (dec.)	900 ± 210 nM	0.89	800 ± 180 nM	1.00	800 ± 220 nM	800 ± 40 nM	1.00	850 ± 170 nM	0.94	300 ± 20 nM	2.67
